{"source": "patent US9133115B2", "about": "(ACHILLION PHARMACEUTICALS, INC., priority 2008, dated 2015)"}
{"system": "HCV replicon", "assay": "HCV replicon replication assay (NPT ELISA) in Huh-7 replicon-containing cells", "format": "cell-based", "conditions": "Hepatitis C virus, 72 h; HCV replicon in Huh-7 cells, three days incubation; read-out: EC50", "how_it_was_run": "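Replication was scored by capture ELISA of neomycin phosphotransferase, whose level tracks replicon replication, after graded compound treatment. The cells were Huh-7 harbouring an HCV-IRES/neo/EMCV-IRES/NS3–NS5B/3′-NTR replicon, plated at 6000-7500 cells/well and dosed 24 h later at 60-70% confluence; interferon alpha was the positive control.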", "units": {"EC50": "nM"}}
{"smiles": "C=C[C@@H]1C[C@]1(NC(=O)[C@@H]1C[C@@H](Oc2cc(-c3ccccc3)nc3cc(OC)ccc23)CN1C(=O)[C@@H](CC(=O)N1CCCC(F)C1)C(C)(C)C)C(=O)NS(=O)(=O)C1CC1", "note": "(stereo partly drawn) [Compound 83, (2S,4R)-1-((2S)-2-tert-butyl-4-(3-fluoropiperidin-1-yl)-4-oxobutanoyl)-N-((1R,2S)-1-(cyclopropyl-sulfonylcarbamoyl)-2-vinylcyclopropyl)-4-(7-methoxy-2-phenylquinolin-4-yloxy)pyrrolidine-2-carboxamide]", "EC50": "< 1000"}
{"smiles": "C=C[C@@H]1C[C@]1(NC(=O)[C@@H]1C[C@@H](O)CN1C(=O)[C@@H](CC(=O)N1CCCCC1)C(C)(C)C)C(=O)NS(=O)(=O)C1CC1", "note": "[Compound 84, (2S,4R)-1-((S)-2-tert-butyl-4-oxo-4-(piperidin-1-yl)butanoyl)-N-((1R,2S)-1-(cyclo-propylsulfonyl-carbamoyl)-2-vinylcyclopropyl)-4-hydroxypyrrolidine-2-carboxamide]", "EC50": "1000 to 10000"}
{"smiles": "C=C[C@H]1C[C@]1(NC(=O)[C@@H]1C[C@@H](Oc2cc(-c3ccccc3)nc3cc(OC)ccc23)CN1C(=O)[C@@H](CC(=O)N1CCCCC1)C1CCCC1)C(=O)NS(=O)(=O)C1CC1", "note": "[Compound 86, (2S,4R)-1-((S)-2-cyclopentyl-4-oxo-4-(piperidin-1-yl)butanoyl)-N-((1R,2R)-1-(cyclo-propylsulfonyl-carbamoyl)-2-vinylcyclopropyl)-4-(7-methoxy-2-phenylquinolin-4-yloxy)pyrrolidine-2-carboxamide]", "EC50": "< 1000"}
{"smiles": "C=C[C@@H]1C[C@]1(NC(=O)[C@@H]1C[C@@H](Oc2cc(-c3ccccc3)nc3cc(OC)ccc23)CN1C(=O)[C@@H](CC(=O)N1CCCC1)C(C)(C)C)C(=O)NS(=O)(=O)C1CC1", "note": "[Compound 87, (2S,4R)-1-((S)-2-tert-butyl-4-oxo-4-(pyrrolidin-1-yl)butanoyl)-N-((1R,2S)-1-(cyclo-propylsulfonyl-carbamoyl)-2-vinylcyclopropyl)-4-(7-methoxy-2-phenylquinolin-4-yloxy)pyrrolidine-2-carboxamide]", "EC50": "< 1000"}
{"smiles": "C=C[C@@H]1C[C@]1(NC(=O)[C@@H]1C[C@@H](Oc2cc(-c3ccccc3)nc3cc(OC)ccc23)CN1C(=O)[C@@H](CC(=O)N1CCC[C@H]1C(=O)N(C)C)C(C)(C)C)C(=O)NS(=O)(=O)C1CC1", "note": "[Compound 88, (2S,4R)-1-((S)-2-tert-butyl-4-((S)-2-(dimethylcarbamo-yl)pyrrolidin-1-yl)-4-oxobutanoyl)-N-((1R,2S)-1-(cyclopropylsulfonyl-carbamoyl)-2-vinylcyclopropyl)-4-(7-methoxy-2-phenylquinolin-4-yloxy)pyrrolidine-2-carboxamide]", "EC50": "< 1000"}
{"smiles": "C=C[C@@H]1C[C@]1(NC(=O)[C@@H]1C[C@@H](Oc2cc(-c3ccccc3)nc3cc(OC)ccc23)CN1C(=O)[C@@H](CC(=O)N1CCC(F)(F)C1)C(C)(C)C)C(=O)NS(=O)(=O)C1CC1", "note": "[Compound 89, (2S,4R)-1-((S)-2-tert-butyl-4-(3,3-difluoropyrrolidin-1-yl)-4-oxobutanoyl)-N-((1R,2S)-1-(cyclopropylsulfonyl-carbamoyl)-2-vinylcyclopropyl)-4-(7-methoxy-2-phenylquinolin-4-yloxy)pyrrolidine-2-carboxamide]", "EC50": "< 1000"}
{"smiles": "C=C[C@@H]1C[C@]1(NC(=O)[C@@H]1C[C@@H](Oc2cc(-c3ccccc3)nc3cc(OC)ccc23)CN1C(=O)[C@@H](CC(=O)N1CCC(N(C)C)C1)C(C)(C)C)C(=O)NS(=O)(=O)C1CC1", "note": "(stereo partly drawn) [Compound 90, (2S,4R)-1-((2S)-2-tert-butyl-4-(3-(dimethylamino)pyr-rolidin-1-yl)-4-oxobutanoyl)-N-((1R,2S)-1-(cyclopropylsulfonyl-carbamoyl)-2-vinylcyclopropyl)-4-(7-methoxy-2-phenylquinolin-4-yloxy)pyrrolidine-2-carboxamide]", "EC50": "1000 to 10000"}
